Molecular target: p38 MAP-kinase (Homo sapiens, UniProt Q16539)
Test: Enzymatic assay: inhibition of p38 MAP-kinase (phosphorylation of GST-tagged ATF2, chemoluminescence bead readout)
Type: biochemical
Details: inhibitor 1 μM, activated p38 MAP-kinase 1 nM, 4 h preincubation, ATP 100 μM, ATF2 10 nM; for inhibition at 1 µM: read-out: % inhibitory effect at 1 μM
Protocol: In this, the amount of a substrate phosphorylated by the kinase is quantified. The test is carried out as follows:
The kinase reaction is carried out in the presence of HEPES (20 mM, pH 7), MgCl2 (10 mM), DTT (1 mM) and TWEEN20 (0.01%). First, dimethylsulphoxide or inhibitor (final concentration: 1 μM) dissolved in dimethylsulphoxide are placed in a reaction vessel. Then the activated p38 MAP-kinase (final concentration 1 nM) is added and the mixture is incubated for 4 h at ambient temperature. Then a mixture of substrate (GST-tagged ATF2) and ATP is added and everything is incubated together for a further hour (final concentration ATP: 100 μM; final concentration ATF2: 10 nM).
The concentration of phosphorylated ATF2 is quantified by chemoluminescence-induced light emission. For this, a glutathione donor bead (final concentration: 5 μg/ml) which binds to the gluthathione on the ATF2 and phospho-ATF2 antibodies are added to the reaction mixture (final concentration: 3 nM; this binds the phosphate group added by the kinase reaction) to which a Protein A Acceptor Bead (final concentration: 5 μg/ml) binds. These components are dissolved in a buffer which contains 20 mM HEPES pH 7.0, 200 mM NaCL, 80 mM EDTA as well as 0.3% BSA. This reaction mixture is incubated in the dark for 1 hour at ambient temperature. When these beads come physically close, visible light is emitted which is measured in a photometer at 520-620 nm.
To determine the inhibitory activity of the compounds according to the invention a calculation is made to determine the percentage by which the kinase activity is inhibited at a fixed inhibitor concentration of 1 μM. The maximum activity is determined by non-inhibited kinase. The minimum activity or nonspecific background activity is determined using a reaction mixture without kinase. […] Table 2 summarises the degree of inhibition of the enzyme p38 MAP-kinase—as described hereinbefore—of the compounds according to the invention detailed in the section “Preparation of the final compounds”.

Sequence of p38 MAP-kinase (Q16539 whole entry): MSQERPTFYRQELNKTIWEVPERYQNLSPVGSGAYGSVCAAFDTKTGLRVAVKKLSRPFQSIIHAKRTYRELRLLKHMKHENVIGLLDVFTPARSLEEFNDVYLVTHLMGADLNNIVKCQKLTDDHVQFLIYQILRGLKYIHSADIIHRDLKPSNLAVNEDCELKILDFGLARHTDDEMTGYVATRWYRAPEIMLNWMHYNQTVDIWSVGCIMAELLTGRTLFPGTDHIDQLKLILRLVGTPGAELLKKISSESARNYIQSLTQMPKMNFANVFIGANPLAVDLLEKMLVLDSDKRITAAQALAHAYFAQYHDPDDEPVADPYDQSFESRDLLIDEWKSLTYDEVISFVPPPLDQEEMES

| inhibition at 1 µM | % inhibitory effect at 1 μM | Structure (SMILES) |
| --- | --- | --- |
| 45.3% | – | COc1c(NC(=O)c2ccc(C(F)(F)F)c(Oc3ccnc(N4CCNCC4)n3)c2)cc(C(C)(C)C)cc1NS(C)(=O)=O [5(4), N-(5-tert-butyl-3-methanesulphonylamino-2-methoxy-phenyl)-3-(2-piperazin-1-yl-pyrimidin-4-yloxy)-4-trifluoromethyl-benzamide x trifluoroacetic acid] |
| 98.3% | – | COc1c(NC(=O)c2ccc(Cl)c(Oc3ccnc(N4CCNCC4)n3)c2)cc(C(C)(C)C)cc1NS(C)(=O)=O [5(5), N-(5-tert-butyl-3-methanesulphonylamino-2-methoxy-phenyl)-4-chloro-3-(2-piperazin-1-yl-pyrimidin-4-yloxy)-benzamide] |
| 98.3% | – | COc1c(NC(=O)c2ccc(C)c(Oc3ccnc(CN4CCNCC4)n3)c2)cc(C(C)(C)C)cc1NS(C)(=O)=O [5(6), N-(5-tert-butyl-3-methanesulphonylamino-2-methoxy-phenyl)-4-methyl-3-(2-piperazin-1-ylmethyl-pyrimidin-4-yloxy)-benzamide] |
| 97.8% | – | COc1c(NC(=O)c2ccc(C)c(Oc3cc(CN4CCNCC4)ncn3)c2)cc(C(C)(C)C)cc1NS(C)(=O)=O [5(7), N-(5-tert-butyl-3-methanesulphonylamino-2-methoxy-phenyl)-4-methyl-3-(6-piperazin-1-ylmethyl-pyrimidin-4-yloxy)-benzamide] |
| 98.9% | – | COc1ccc(C(=O)Nc2cc(C(C)(C)C)cc(NS(C)(=O)=O)c2OC)cc1Oc1ccnc(N2CCNCC2)n1 [5(8), N-(5-tert-butyl-3-methanesulphonylamino-2-methoxy-phenyl)-4-methoxy-3-(2-piperazin-1-yl-pyrimidin-4-yloxy)-benzamide] |
| 98.5% | – | COc1c(NC(=O)c2ccc(C)c(Oc3ccnc(CN4CCNCC4)c3)c2)cc(C(C)(C)C)cc1NS(C)(=O)=O [5(9), N-(5-tert-butyl-3-methanesulphonylamino-2-methoxy-phenyl)-4-methyl-3-(2-piperazin-1-ylmethyl-pyridin-4-yloxy)-benzamide x trifluoroacetic acid] |
| 94.6% | – | COc1c(NC(=O)c2ccc(F)c(Oc3ccnc(N4CCNCC4)n3)c2)cc(C(C)(C)C)cc1NS(C)(=O)=O [5(10), N-(5-tert-butyl-3-methanesulphonylamino-2-methoxy-phenyl)-4-fluoro-3-(2-piperazin-1-yl-pyrimidin-4-yloxy)-benzamide x trifluoroacetic acid] |
| 98.4% | – | COc1c(NC(=O)c2ccc(Br)c(Oc3ccnc(N4CCNCC4)n3)c2)cc(C(C)(C)C)cc1NS(C)(=O)=O [5(11), N-(5-tert-butyl-3-methanesulphonylamino-2-methoxy-phenyl)-4-bromo-3-(2-piperazin-1-yl-pyrimidin-4-yloxy)-benzamide] |
| 98.6% | – | COc1c(NC(=O)c2cc(Cl)c(C)c(Oc3ccnc(N4CCNCC4)n3)c2)cc(C(C)(C)C)cc1NS(C)(=O)=O [5(12), N-(5-tert-butyl-3-methanesulphonylamino-2-methoxy-phenyl)-3-chloro-4-methyl-5-(2-piperazin-1-yl-pyrimidin-4-yloxy)-benzamide] |
| 98.2% | – | COc1c(NC(=O)c2cc(F)c(C)c(Oc3ccnc(N4CCNCC4)n3)c2)cc(C(C)(C)C)cc1NS(C)(=O)=O [5(13), N-(5-tert-butyl-3-methanesulphonylamino-2-methoxy-phenyl)-3-fluoro-4-methyl-5-(2-piperazin-1-yl-pyrimidin-4-yloxy)-benzamide] |
| 98.5% | – | COc1c(NC(=O)c2ccc(C)c(Oc3ccnc(N(C)C4CCNCC4)n3)c2)cc(C(C)(C)C)cc1NS(C)(=O)=O [5(14), N-(5-tert-butyl-3-methanesulphonylamino-2-methoxy-phenyl)-4-methyl-3-[2-(N-methyl-N-piperidin-4-yl-amino)-pyrimidin-4-yloxy]-benzamide] |
| 96% | – | CCc1ccc(C(=O)Nc2cc(C(C)(C)C)cc(NS(C)(=O)=O)c2OC)cc1Oc1ccnc(N2CCNCC2)n1 [5(15), N-(5-tert-butyl-3-methanesulphonylamino-2-methoxy-phenyl)-4-ethyl-5-(2-piperazin-1-yl-pyrimidin-4-yloxy)-benzamide] |
| 98.9% | – | COc1c(NC(=O)c2ccc(C)c(Oc3ccnc(NC4CCNCC4)n3)c2)cc(C(C)(C)C)cc1NS(C)(=O)=O [5(16), N-(5-tert-butyl-3-methanesulphonylamino-2-methoxy-phenyl)-4-methyl-3-[2-(piperidin-4-ylamino)-pyrimidin-4-yloxy]-benzamide] |
| 98.2% | – | COc1c(NC(=O)c2ccc(C)c(Oc3cc(NC4CCNCC4)ncn3)c2)cc(C(C)(C)C)cc1NS(C)(=O)=O [5(17), N-(5-tert-butyl-3-methanesulphonylamino-2-methoxy-phenyl)-4-methyl-3-[6-(piperidin-4-ylamino)-pyrimidin-4-yloxy]-benzamide x trifluoroacetic acid] |
| 98.7% | – | COc1c(NC(=O)c2ccc(C)c(Oc3cc(CC4CCNCC4)ncn3)c2)cc(C(C)(C)C)cc1NS(C)(=O)=O [5(18), N-(5-tert-butyl-3-methanesulphonylamino-2-methoxy-phenyl)-4-methyl-3-(6-piperidin-4-ylmethyl-pyrimidin-4-yloxy)-benzamide] |
| 99.7% | – | COc1c(NC(=O)c2ccc(C)c(Oc3ccnc(CC4CCNCC4)n3)c2)cc(C(C)(C)C)cc1NS(C)(=O)=O [5(19), N-(5-tert-butyl-3-methanesulphonylamino-2-methoxy-phenyl)-4-methyl-3-(2-piperidin-4-ylmethyl-pyrimidin-4-yloxy)-benzamide] |
| 99.5% | – | COc1c(NC(=O)c2ccc(C)c(Oc3ccnc(CC4CCNCC4)c3)c2)cc(C(C)(C)C)cc1NS(C)(=O)=O [5(20), N-(5-tert-butyl-3-methanesulphonylamino-2-methoxy-phenyl)-4-methyl-3-(2-piperidin-4-ylmethyl-pyridin-4-yloxy)-benzamide] |
| 88.9% | – | COc1c(NC(=O)c2cc(C)cc(Oc3ccnc(C(=O)N4CCNCC4)n3)c2)cc(C(C)(C)C)cc1NS(C)(=O)=O [5(21), N-(5-tert-butyl-3-methanesulphonylamino-2-methoxy-phenyl)-3-methyl-5-[2-(piperazine-1-carbonyl)-pyrimidin-4-yloxy]-benzamide x trifluoroacetic acid] |
| 85.7% | – | COc1c(NC(=O)c2cc(C)cc(Oc3ccnc(CN4CCNCC4)n3)c2)cc(C(C)(C)C)cc1NS(C)(=O)=O [5(22), N-(5-tert-butyl-3-methanesulphonylamino-2-methoxy-phenyl)-3-methyl-5-(2-piperazin-1-ylmethyl-pyrimidin-4-yloxy)-benzamide] |
| 98.3% | – | COc1c(NC(=O)c2ccc(C)c(Oc3ccnc(NC4CCNC4)n3)c2)cc(C(C)(C)C)cc1NS(C)(=O)=O (stereo not shown) [5(23), N-(5-tert-butyl-3-methanesulphonylamino-2-methoxy-phenyl)-4-methyl-3-[2-(pyrrolidin-3-ylamino)-pyrimidin-4-yloxy]-benzamide] |
| 97.9% | – | COc1c(NC(=O)c2ccc(C)c(Oc3ccnc(N(C)C4CCNC4)n3)c2)cc(C(C)(C)C)cc1NS(C)(=O)=O (stereo not shown) [5(24), N-(5-tert-butyl-3-methanesulphonylamino-2-methoxy-phenyl)-4-methyl-3-[2-(methyl-pyrrolidin-3-yl-amino)-pyrimidin-4-yloxy]-benzamide] |
| – | 97.6% | COc1c(NC(=O)c2ccc(C)c(Oc3ccnc(N(C)C4CCNCC4)n3)c2)cc(C(C)(C)C)cc1NS(C)(=O)=O [5(25), N-(5-tert-butyl-3-methanesulphonylamino-2-methoxy-phenyl)-4-methyl-3-[2-(methyl-piperidin-4-yl-amino)-pyrimidin-4-yloxy]-benzamide] |
| 97.6% | – | COc1c(NC(=O)c2ccc(C)c(Oc3cc(NC4CCNC4)ncn3)c2)cc(C(C)(C)C)cc1NS(C)(=O)=O (stereo not shown) [5(26), N-(5-tert-butyl-3-methanesulphonylamino-2-methoxy-phenyl)-4-methyl-3-[6-(pyrrolidin-3-ylamino)-pyrimidin-4-yloxy]-benzamide] |
| 99% | – | COc1c(NC(=O)c2ccc(Cl)c(Oc3ccnc(NC4CCNCC4)n3)c2)cc(C(C)(C)C)cc1NS(C)(=O)=O [5(28), N-(5-tert-butyl-3-methanesulphonylamino-2-methoxy-phenyl)-4-chloro-3-[2-(piperidin-4-ylamino)-pyrimidin-4-yloxy]-benzamide] |
| 99% | – | COc1c(NC(=O)c2ccc(Cl)c(Oc3ccnc(CC4CCNCC4)c3)c2)cc(C(C)(C)C)cc1NS(C)(=O)=O [5(29), N-(5-tert-butyl-3-methanesulphonylamino-2-methoxy-phenyl)-4-chloro-3-(2-piperidin-4-ylmethyl-pyridin-4-yloxy)-benzamide] |

From US8946438B2, “Benzamides, production thereof, and use thereof as medicaments” (Boehringer Ingelheim International GmbH, priority 2008, dated 2015)
